According to patent publication US20080207614A1, “QUINAZOLINE DERIVATIVES FOR THE TREATMENT AND PREVENTION OF DIABETES AND OBESITY” (SK CHEMICALS CO., LTD., priority 2004, published 2008):

Assays:
C2C12 muscle cells = assay: Analysis of glucose absorption (2-deoxyglucose) in differentiated C2C12 muscle cells; assay type: cell-based; details: test materials 10 μM, times relative to control group
In short: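 Differentiated C2C12 myotubes (6 days in 1% serum) held 3 h in KRB with 5 mM glucose, then given test material at 10 μM. After 30 min, 0.2 μCi 2-deoxyglucose added for 20 min; uptake measured by radioactive counting of NaOH lysates.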

AMPK = assay: Measurement of AMPK activity by Western blot in C2C12 cells; assay type: cell-based; parameters: key to AMPK activity (degree of phosphorylation of serine-79 and threonine-172): fold increase in threonine-172 phosphorylation; AMPK activity (degree of phosphorylation of serine-79): unit not given here; details: 10 μM for 50 minutes; for AMPK activity (degree of phosphorylation of serine-79 and threonine-172): no superscript: Western blot of serine-79 and threonine-172 phosphorylation; for AMPK activity (class: degree of phosphorylation of threonine-172): strong/mild/weak
Method: C2C12 cells were cultured and differentiated in the same manner as in Experimental Example 1. Treatment with the test materials was also performed in the same manner as in Experimental Example 1 (10 μM for 50 minutes). The culture medium was removed and the cells were washed for 2 times with PBS and protein extracts were obtained using a lysis buffer (50 mM tris-HCl, pH 7.4, 1% NP-40, 0.25% sodium deoxycholate, 150 mM NaCl, 1 mM EDTA, 1 mM PMSF, 1 mM sodium o-vanadate, 1 mM NaF, 1 μg/mL apronitin, 1 μg/mL leu-peptin, 1 μg/mL pepstatin). The AMPK activity was determined from Western blot analysis of the degree of phosphorylation of serine-79 […] acetyl CoA carboxylase and the degree of phosphorylation of threonine-172. The amount of ERK (extracellular signal regulated protein kinase) was confirmed by Western blot in order to quantify the proteins.
The result of Western blot analysis is given in Table 3 below, wherein “strong” means that the degree of phosphorylation of threonine-172 increased by 3 times or more, “mild” means that the degree of phosphorylation of threonine-172 increased by 1 to 3 times and “weak” means that the degree of phosphorylation of threonine-172 increased by less than 1 time.

Row | SMILES | Glucose absorption (C2C12 muscle cells) | AMPK activity (degree of phosphorylation of serine-79 and threonine-172) (AMPK) | AMPK activity (class: degree of phosphorylation of threonine-172) (AMPK) | AMPK activity (degree of phosphorylation of serine-79) (AMPK; footnote a: Western blot of serine-79 phosphorylation)
1 | Brc1cccc(CNc2nc(-c3ccccc3)nc3ccccc23)c1 [Compound 153, (3-Bromobenzyl)-(2-phenylquinazolino-4-yl)-amine] | 2.4 | 1.3 | mild (“mild” means that the degree of phosphorylation of threonine-172 increased by 1 to 3 times) | 
2 | CCSc1nc(NCc2ccccc2)c2ccccc2n1 [Compound 22, Benzyl-(2-Ethylsulfanylquinazolino-4-yl)-amine] | 2.6 |  | strong (“strong” means that the degree of phosphorylation of threonine-172 increased by 3 times or more) | 
3 | COc1cc(CNc2nc(-c3ccccc3)nc3ccccc23)ccc1O [Compound 113, 2-Methoxy-4-[(2-phenylquinazolino-4-ylamino)-methyl]-phenol] | 2.1 | 2.1 | strong (“strong” means that the degree of phosphorylation of threonine-172 increased by 3 times or more) | 
4 | COc1ccc(CNc2nc(C3CCCCC3)nc3ccccc23)cc1 [Compound 201, (2-Cyclohexylquinazolino-4-yl)-(4-methoxybenzyl)-amine] | 1.7 | 2.8 | strong (“strong” means that the degree of phosphorylation of threonine-172 increased by 3 times or more) | 
5 | CCCc1nc(NCc2cc(OC)cc(OC)c2)c2ccccc2n1 [Compound 398, (3,5-Dimethoxybenzyl)-(2-propylquinazolino-4-yl)-amine] | 1.4 | 7.8 |  | 
6 | COc1ccc(CNc2nc(C(C)C)nc3ccccc23)c(OC)c1 [Compound 271, (2,4-Dimethoxybenzyl)-(2-isopropylquinazolino-4-yl)-amine] | 0.8 | 2.4 |  | 
7 | COc1ccc(CNc2nc(C(OC)c3ccccc3)nc3ccccc23)c(OC)c1 (stereo not shown) [Compound 368, (2,4-Dimethoxybenzyl)-[2-(methoxyphenylmethyl)-quinazolino-4-yl]-amine] | 1.1 | 5.9 |  | 
8 | COc1ccc(CNc2nc(N3CCCC3)nc3ccccc23)cc1OC [Compound 299, (3,4-Dimethoxybenzyl)-(2-pyrrolidino-1-ylquinazolino-4-yl)-amine] | 0.8 | 0.6 |  | 
9 | COc1ccc(OC)c(CNc2nc(N3CCCCC3)nc3ccccc23)c1 [Compound 296, (2,5-Dimethoxybenzyl)-(2-piperidino-1-ylquinazolino-4-yl)-amine] | 0.9 | 1.0 |  | 
10 | c1ccc(-c2nc(NCCN3CCCCC3)c3ccccc3n2)cc1 [Compound 101, (2-Phenylquinazolino-4-yl)-(2-piperidino-1-ylethyl)-amine] | 1.5 |  | weak (“weak” means that the degree of phosphorylation of threonine-172 increased by less than 1 time) | 
11 | CC(C)(C)c1nc(NCCc2ccccc2)c2ccccc2n1 [Compound 191, (2-tert-Butylquinazolino-4-yl)-phenethylamine] | 2.4 | 5.2 | strong (“strong” means that the degree of phosphorylation of threonine-172 increased by 3 times or more) | 
12 | COc1cc(OC)c(CNc2nc(C(OC)c3ccccc3)nc3ccccc23)c(OC)c1 (stereo not shown) [Compound 370, [2-(Methoxyphenylmethyl)-quinazolino-4-yl]-(2,4,6-trimethoxybenzyl)-amine] | 1.3 | 7.7 |  | 
13 | COc1cc(CNc2nc(N3CCCC3)nc3ccccc23)cc(OC)c1 [Compound 303, (3,5-Dimethoxybenzyl)-(2-pyrrolidino-1-ylquinazolino-4-yl)-amine] | 1.0 | 1.0 |  | 
14 | COc1ccc(CNc2nc(N3CCCCC3)nc3ccccc23)c(OC)c1 [Compound 292, (2,4-Dimethoxybenzyl)-(2-piperidino-1-ylquinazolino-4-yl)-amine] | 0.7 | 1.2 |  | 
15 | COc1cc(CNc2nc(C(C)C)nc3ccccc23)cc(OC)c1OC [Compound 325, (2-Isopropylquinazolino-4-yl)-(3,4,5-trimethoxybenzyl)-amine] | 1.2 | 2.2 |  | 
16 | COc1ccc(OC)c(CNc2nc(C(C)C)nc3ccccc23)c1 [Compound 326, (2,5-Dimethoxybenzyl)-(2-isopropylquinazolino-4-yl)-amine] | 1.2 | 2.9 |  | 

Row | SMILES | Glucose absorption (C2C12 muscle cells) | AMPK activity (degree of phosphorylation of serine-79 and threonine-172) (AMPK) | AMPK activity (class: degree of phosphorylation of threonine-172) (AMPK) | AMPK activity (degree of phosphorylation of serine-79) (AMPK; footnote a: Western blot of serine-79 phosphorylation)
17 | CCSc1nc(NC(C)CC)c2ccccc2n1 (stereo not shown) [Compound 20, sec-Butyl-(2-ethylsulfanylquinazolino-4-yl)-amine] | 1.9 |  | weak (“weak” means that the degree of phosphorylation of threonine-172 increased by less than 1 time) | 
18 | COc1cc(CNc2nc(N3CCOCC3)nc3ccccc23)cc(OC)c1 [Compound 305, (3,5-Dimethoxybenzyl)-(2-morpholino-4-ylquinazolino-4-yl)-amine] | 0.8 | 2.1 |  | 
19 | COc1cc(OC)c(CNc2nc(C(C)C)nc3ccccc23)c(OC)c1 [Compound 327, (2-Isopropylquinazolino-4-yl)-(2,4,6-trimethoxybenzyl)-amine] | 1.3 | 4.4 |  | 
20 | CCOc1cc2ncnc(NCCCN3CCOCC3)c2cc1OCC [Compound 15, (6,7-Diethoxyquinazolino-4-yl)-(3-morpholino-4-ylpropyl)-amine] | 0.8 |  |  | 2.3^a
21 | COc1cccc(CNc2nc(N3CCN(C)CC3)nc3ccccc23)c1OC [Compound 290, (2,3-Dimethoxybenzyl)-[2-(4-methylpiperazino-1-yl)-quinazolino-4-yl]-amine] |  | 1.0 |  | 
22 | CCCc1nc(NCc2cc(OC)c(OC)c(OC)c2)c2ccccc2n1 [Compound 400, (2-Propylquinazolino-4-yl)-(3,4,5-trimethoxybenzyl)-amine] |  | 0.4 |  | 
23 | COc1ccc(CNc2nc(C(OC)c3ccccc3)nc3ccccc23)cc1OC (stereo not shown) [Compound 366, (3,4-Dimethoxybenzyl)-[2-(methoxyphenylmethyl)-quinazolino-4-yl]-amine] |  | 1.6 |  | 
24 | COc1cccc(CNc2nc(N3CCCC3)nc3ccccc23)c1OC [Compound 287, (2,3-Dimethoxybenzyl)-(2-pyrrolidino-1-ylquinazolino-4-yl)-amine] |  | 1.2 |  | 
25 | COc1ccc(CNc2nc(N3CCN(C)CC3)nc3ccccc23)cc1 [Compound 286, (4-Methoxybenzyl)-[2-(4-methylpiperazino-1-yl)-quinazolino-4-yl]-amine] |  | 1.0 |  | 
26 | COc1ccc(OC)c(CNc2nc(-c3ccco3)nc3ccccc23)c1 [Compound 347, (2,5-Dimethoxybenzyl)-(2-furano-2-ylquinazolino-4-yl)-amine] |  | 1.2 |  | 
27 | COc1cc(CNc2nc(-c3cccs3)nc3ccccc23)cc(OC)c1 [Compound 354, (3,5-Dimethoxybenzyl)-(2-thiopenyl-2-ylquinazolino-4-yl)-amine] |  | 0.6 |  | 
28 | COc1cccc(CNc2nc(C3CC3)nc3ccccc23)c1OC [Compound 386, (2-Cyclopropylquinazolino-4-yl)-(2,3-dimethoxybenzyl)-amine] |  | 1.3 |  | 
29 | c1csc(-c2nc(NCc3ccc4c(c3)OCO4)c3ccccc3n2)c1 [Compound 352, Benzo[1,3]dioxol-5-ylmethyl-(2-thiopenyl-2-ylquinazolino-4-yl)-amine] |  | 0.5 |  | 
30 | COc1cc(CNc2nc(-c3cccs3)nc3ccccc23)cc(OC)c1OC [Compound 356, (2-Thiopenyl-2-ylquinazolino-4-yl)-(3,4,5-trimethoxybenzyl)-amine] |  | 1.4 |  | 
31 | COc1cc(OC)c(CNc2nc(N3CCCCC3)nc3ccccc23)c(OC)c1 [Compound 316, (2-Piperidino-1-ylquinazolino-4-yl)-(2,4,6-trimethoxybenzyl)-amine] |  | 1.2 |  | 
